Test results: Sander's compilation of Henry's law constants (doi:10.1093/jxb/48.5.1095)

Test: Henry solubility constant Hcp at 298.15 K (mol/(m3 Pa))
Details: reference: Merk and Riederer (1997)

Row | Compound | Henry solubility constant Hcp
1 | CCCCCO [1-pentanol] | 0.77
2 | CCCCCCO [1-hexanol] | 0.58
3 | CCCC(C)O (stereo not given) [2-pentanol] | 0.66
4 | CCC(C)(C)O [2-methyl-2-butanol] | 0.7
5 | CCCCC(C)O (stereo not given) [2-hexanol] | 0.48

The remaining lines, values ahead:

Row | Henry solubility constant Hcp | Compound
6 | 0.83 | CCC(C)O (stereo not given) [2-butanol]
7 | 1.9 | CCO [ethanol]
8 | 0.78 | CC(C)CO [2-methyl-1-propanol]
9 | 1.5 | CCCO [1-propanol]
10 | 1.2 | CC(C)O [2-propanol]
